From patent publication US20140093884A1, “Process for Identifying Novel Anti-Inflammatory Molecules with Reduced Direct Transrepression of Genes Induced by Glucocorticoids” (UNIVERSITE DE STRASBOURG, priority 2011, published 2014)

Tests used:
[1] = test system: VDRE reporter plasmid (IR nGRE element deleted); test: Luciferase reporter assay in A549 cells, VDRE reporter without IR1 nGRE; type: cell-based, human; conditions: FA addition
Procedure: Luciferase reporter assay. A549 cells seeded on 24-well tissue culture plates overnight at 70% confluency were transfected with 100 ng pCMV β galactosidase, 200 ng pGL3 reporter plasmids and wherever indicated, with 600 ng pSG5 hVDR plasmid (Green et al., 1988) into each well and maintained in medium containing charcoal treated FCS. 24 hours post-transfection, medium was changed and different compounds were added to it for 6 hours. Final concentrations of the compounds are: FA, 500 nM; Dex or RU24858, 300 nM or 500 nM (wherever 300 nM Dex or RU was used, it is indicated in the figure, in all other cases, 500 nM concentration was used); active vitamin D3, 1 μM; IL-1β, 5 ng/ml; BAY 11-7082, 5 μM, JNK inhibitor II, 25 μM. Luciferase assay was carried out as instructed (Promega). Normalized values are reported as the mean±SEM; each value originates from at least three individual transfections with assays performed in duplicate. […]

[2] = test system: IR nGRE (pGL3(VDRE) IR1 nGRE luciferase reporter); test: Luciferase reporter assay in A549 cells, pGL3(VDRE) IR nGRE plasmids; type: cell-based, human
Procedure: Luciferase reporter assay. A549 cells seeded on 24-well tissue culture plates overnight at 70% confluency were transfected with 100 ng pCMV β galactosidase, 200 ng pGL3 reporter plasmids and wherever indicated, with 600 ng pSG5 hVDR plasmid (Green et al., 1988) into each well and maintained in medium containing charcoal treated FCS. 24 hours post-transfection, medium was changed and different compounds were added to it for 6 hours. […] Luciferase assay was carried out as instructed (Promega). Normalized values are reported as the mean±SEM; each value originates from at least three individual transfections with assays performed in duplicate.
To investigate whether additional DNA elements could be required to generate a repressing activity, the TSLP IR1 nGRE was inserted upstream of an enhancerless SV40 early promoter located 5′ to the luciferase coding sequence of pGL3 vector, A VDRE separated from the IR1 nGRE by a 314 bp-long DNA segment devoid of any known transregulator binding site (not shown) was inserted to generate a luciferase-expressing reporter plasmid (pGL3(VDRE) IR1 nGRE, FIG. 4), which was transfected into A549 cells, followed by addition of VitD3 and/or FA.
To investigate whether the 1 bp spacer between the inverted repeated motifs of TSLP IR1 nGRE was critical for its repressing function, pGL3-based luciferase plasmids containing the VDRE and TSLP nGRE motifs spaced by 0 to 5 bases (IR0 to IR5 nGREs) were transfected into A549 cells.

[3] = test system: TSLP; test: TSLP transcript levels in mouse ear epidermis after topical treatment (Q-RT-PCR); type: in vivo; conditions: WT mice
Source text: Mice. […] Real time PCR. Total RNA was reverse transcribed using hexamers, followed by Q-PCR, as reported (Li et al., 2005). The GC agonist fluocinolone acetonide (FA) was applied to ears of mice concomitantly treated with the “low-calcemic” Vitamin D3 (VitD3) analog MC903 (Calcipotriol; hereafter called MC) to trigger TSLP expression (Li et al., 2006). […] As expected, the expression of the GC-inducible GPX3 (glutathione peroxidase 3) gene which harbours a (+)GRE (Tuckermann et al., 1999) was enhanced by FA (FIG. 10) and inhibited by RU co-treatment, while FA or RU had no effect on MC-dependent expression of the CYP24A1 gene (a VitD3 target) (FIG. 10). […] Although the basal TSLP level was similar in vehicle-treated WT and GR^ep−/− mice, FA blocked MC-induced TSLP expression in WT, but not in GR^ep−/− mice (not shown).

[4] = test system: CYP24A1 gene (a VitD3 target); test: CYP24A1 transcript levels in mouse ear epidermis after topical treatment (Q-RT-PCR); type: in vivo; conditions: mouse ears, FIG. 10
Source text: Mice. […] Real time PCR. Total RNA was reverse transcribed using hexamers, followed by Q-PCR, as reported (Li et al., 2005). The GC agonist fluocinolone acetonide (FA) was applied to ears of mice concomitantly treated with the “low-calcemic” Vitamin D3 (VitD3) analog MC903 (Calcipotriol; hereafter called MC) to trigger TSLP expression (Li et al., 2006). […] As expected, the expression of the GC-inducible GPX3 (glutathione peroxidase 3) gene which harbours a (+)GRE (Tuckermann et al., 1999) was enhanced by FA (FIG. 10) and inhibited by RU co-treatment, while FA or RU had no effect on MC-dependent expression of the CYP24A1 gene (a VitD3 target) (FIG. 10).

CC1(C)O[C@@H]2C[C@H]3[C@@H]4C[C@H](F)C5=CC(=O)C=C[C@]5(C)[C@@]4(F)[C@@H](O)C[C@]3(C)[C@]2(C(=O)CO)O1 [FA, fluocinolone acetonide]
luciferase expression in absence of IR1 nGRE [1]: did not affect
reporter genes containing the IR1 nGRE DBS of various genes ([2]; 6 hours, FIG. 13): induces repression
repressing activity with mutant IR1 nGRE to which recombinant GR does not bind ([2]; FA): no FA-inducible repressing activity
basal and VDRE-mediated VitD3-induced luciferase expression in presence of IR1 nGRE ([2]; pGL3(VDRE) IR1 nGRE, FA addition, FIG. 11): decreased expression
change in basal and VitD3-induced luciferase activity for IR3, IR4 and IR5 nGREs ([2]; upon FA addition): no significant change
decrease in basal and VitD3-induced luciferase activity for IR1 and IR2 compared with IR0 nGRE ([2]; upon FA addition): stronger
MC-induced TSLP expression, effect of FA [3]: blocked
inhibition of basal TSLP RNA level ([3]; ears, topical FA): ~50%
MC-induced increase of TSLP RNA, effect of FA ([3]; ears, topical, MC903 co-treatment): fully blocked
effect on MC-dependent expression of the CYP24A1 gene [4]: no effect
